Paper PMC4613240, “A Series of New Ligustrazine-Triterpenes Derivatives as Anti-Tumor Agents: Design, Synthesis, and Biological Evaluation” (International Journal of Molecular Sciences, 2015)

Experiments:
[1] = test system: Madin-Darby canine kidney cell line (MDCK); test: MTT cytotoxicity (nephrotoxicity/selectivity) assay, MDCK; assay type: cell-based; settings: Canis lupus familiaris
[2] = test system: HepG2 cells; test: Apoptosis analysis by flow cytometry using Annexin V-FITC/PI staining; assay type: cell-based, human; settings: 72 h, control 6%
Description: To substantiate the ability of 4a to induce apoptosis, further analysis was carried out using Annexin V-FITC/PI double staining technique in HepG2 cells. Cells stained with Annexin V-FITC and PI were classified as necrotic (Q1; Annexin^−/PI^+), late apoptotic (Q2; Annexin^+/PI^+), intact (Q3; Annexin^−/PI^−), or early apoptotic (Q4; Annexin^+/PI^−) cells. […] Even at the minimum concentration of 5 μM, 4a induced cell apoptosis at a ratio of 75.7% after 72 h of treatment.
The Annexin V-FITC/PI flow cytometric assay was performed to determine the early and late apoptosis in this assay according to the instruction of the manufacturer (Annexin V-FITC/PI, Beijing BioDee Biotech. Co., Ltd., Beijing, China). Briefly, HepG2 cells were treated with various concentrations of compound 4a (5, 6, 7 μM) for 72 h at 37 °C, then the treated cells were washed twice with cold PBS and centrifuged at 1000 rpm for 5 min. The harvested cells were resuspended in 200 μL binding buffer, containing 10 μL Annexin V-FITC. After 15 min, the cells were washed twice and resuspended in 300 μL binding buffer. At the same time, 10 μL PI was added. Then the cells were immediately analyzed with a flow cytometry.

[3] = test system: HepG2 cells; test: Intracellular free Ca2+ detection (Fluo-3AM, flow cytometry); assay type: cell-based, human; settings: 72 h, control MFI 4773
Description: A sustained increase in intracellular Ca^2+ concentrations is recognized as a factor for cell death or injury. The level of intracellular free Ca^2+ is examined by the fluorescent dye Fluo-3AM. The Fluo-3 AM is converted to Fluo-3 upon deacetylation within the cells, and Fluo-3 increases green fluorescence upon Ca^2+ binding. […] As the concentration of 4a increased from 5.0 to 6.0 to 7.0 μM, intracellular free Ca^2+ fluorescence increased dramatically (from 4800 to 5612 to 6955). It was in accordance with the tendencies of mitochondrial membrane potential and cell apoptosis.
The level of intracellular free Ca^2+ was examined by the fluorescent dye Fluo-3AM. HepG2 cells (1 × 10^5 cells/mL) in logarithmic growth phase were cultured in 6-well plates for 24 h at 37 °C in incubator with 5% CO2. After exposed to different concentrations of 4a (5, 6, 7 μM) for 72 h, cells were harvested and washed twice with cold PBS, then resuspended in HBSS buffer with 10 μM Fluo-3AM (Fluo-3AM, Shanghai Beyotime Biotech. Co., Ltd., Shanghai, China), and incubated for 30 min at 37 °C in the dark. Detection of intracellular Ca^2+ was carried out by the Flow Cytometer at 488 nm excitation wavelength.

[4] = test system: HepG2 cells; test: Morphological observation using Giemsa staining; assay type: cell-based, human; settings: HepG2, 2, 4, 8 μM for 72 h
Description: The morphological changes in HepG2 cells were examined by Giemsa staining. HepG2 cells were seeded in 6-well plates. The cell density was adjusted to 4 × 10^3/well and incubated overnight. After 72 h reaction with certain concentrations of 4a (2, 4, 8 μM), cells were washed with PBS and fixed with cold methanol for 10 min. Methanol was discarded and cells were air-dried. Then fixed cells were stained with 6% Giemsa (Giemsa, Molecular Probes/Invitrogen Life Technologies, Carlsbad, CA, USA) solution for 5 min, washed with water and dried. The cell morphological changes were observed and photographed under a light microscope.

[5] = test system: HepG2 cells; test: Morphological observation using AO/EB double staining; assay type: cell-based, human; settings: HepG2, 2, 4, 8 μM for 72 h
Description: To further characterize 4a-induced HepG2 cell apoptosis, the changes in cell morphology of the treated cells were determined using AO/EB double staining. AO is a vital dye that stains both live and dead cells as it can penetrate normal cell membrane. EB stains only cells that have lost their membrane integrity. Cells that stained green indicate viable cells, yellow indicate early apoptosis and orange/red indicate late apoptosis.
Apoptotic study was performed using AO/EB double staining. HepG2 cells were seeded in six well plates at a density of 1 × 10^4 cells/well and allowed to grow for 24 h. Then the cells were incubated in the presence of 4a at various concentrations (2, 4, 8 μΜ) at 37 °C and 5% CO2 for 72 h. After the treatment period, cells were collected and centrifuged; then the cells were suspended in phosphate-buffer saline (PBS) and centrifuged again. The liquid was removed; the cells were suspended in PBS. Then AO/EB (AO/EB, Sigma, USA) solution (1:1 v/v) was added to the cell suspension in a final concentration of 100 μg/mL. Cell morphologies were assessed under a fluorescent microscope.

C=C(C)[C@@H]1CC[C@]2(C(=O)OCc3nc(C)c(C)nc3C)CC[C@]3(C)C(CCC4[C@@]5(C)CC[C@H](O)C(C)(C)C5CC[C@]43C)C12 (stereo partly drawn) [Compound 4a, 3β-Hydroxy-lup-20(29)-ene-28-oic acid-3,5,6-trimethylpyrazin-2-methyl ester]
inhibition at 10 µM ([1]; MDCK, 10 μM, read-out: inhibition rate against MDCK): ~26.5% | IC50 ([1]; maximal tested concentration 20.0 μM, toxicity to MDCK kidney cells): > 20 µM | apoptosis ratio (early and late apoptosis) ([2]; HepG2, 5 μM): 75.7% | apoptosis ratio (early and late apoptosis) ([2]; HepG2, 6 μM): 76.6% | apoptosis ratio (early and late apoptosis) ([2]; HepG2, 7 μM): 83.7% | intracellular free Ca2+ fluorescence (MFI), Fluo-3AM ([3]; HepG2, 5 μM): 4800 | intracellular free Ca2+ fluorescence (MFI), Fluo-3AM ([3]; HepG2, 6 μM): 5612 | intracellular free Ca2+ fluorescence (MFI), Fluo-3AM ([3]; HepG2, 7 μM): 6955 | cell morphology after Giemsa staining [4]: evident nuclear fragmentation, chromatin condensation in a dose dependent manner | cell morphology after AO/EB double staining [5]: increased number of orange- and red-stained cells in a dose dependent manner
